Patent publication US7517884B2 (Kalypsys Inc., priority 1998, dated 2009)
pEC50: −log10 of the molar value.

How the values were obtained:
Type in all cases: cell-based, murine and human
Conditions in all cases: GAL4-PPAR LBD chimera
PPAR-gamma = molecular target: T1, PPAR-gamma (UniProt P37231); assay: PPAR-gamma transactivation assay (GAL4 chimera, luciferase reporter) in CV-1 cells
T1 sequence (P37231 1-505): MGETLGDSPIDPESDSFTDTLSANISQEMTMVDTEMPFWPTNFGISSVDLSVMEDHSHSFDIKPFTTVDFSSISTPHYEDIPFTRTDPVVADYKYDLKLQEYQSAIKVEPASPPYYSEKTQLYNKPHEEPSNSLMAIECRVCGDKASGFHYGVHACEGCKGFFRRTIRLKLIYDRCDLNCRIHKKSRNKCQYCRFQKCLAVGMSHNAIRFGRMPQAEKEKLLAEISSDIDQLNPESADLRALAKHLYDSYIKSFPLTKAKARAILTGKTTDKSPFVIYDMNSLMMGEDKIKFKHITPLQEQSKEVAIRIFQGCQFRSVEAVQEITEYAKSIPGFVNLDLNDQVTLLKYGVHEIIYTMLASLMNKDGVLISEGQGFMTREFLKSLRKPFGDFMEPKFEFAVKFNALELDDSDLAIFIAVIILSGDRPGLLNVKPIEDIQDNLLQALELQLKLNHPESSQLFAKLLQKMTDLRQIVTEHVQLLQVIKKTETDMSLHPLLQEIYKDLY
Text: (§1) Compounds may be screened for functional potency in transient transfection assays in CV-1 cells for their ability to activate the PPAR subtypes (transactivation assay). A previously established chimeric receptor system was utilized to allow comparison of the relative transcriptional activity of the receptor subtypes on the same synthetic response element and to prevent endogenous receptor activation from complicating the interpretation of results. See, for example, Lehmann, J. M.; Moore, L. B.; Smith-Oliver, T. A; Wilkinson, W. O.; Willson, T. M.; Kliewer, S. A., An antidiabetic thiazolidinedione is a high affinity ligand for peroxisome proliferator-activated receptor […], J. Biol. Chem., 1995, 270, 12953-6. The ligand binding domains for murine and human PPAR-alpha, PPAR-gamma, and PPAR-delta are each fused to the yeast transcription factor GAL4 DNA binding domain. CV-1 cells were transiently transfected with expression vectors for the respective PPAR chimera along with a reporter construct containing four or five copies of the GAL4 DNA binding site driving expression of luciferase. After 8-16 h, the cells are replated into multi-well assay plates and the media is exchanged to phenol-red free DME medium supplemented with 5% delipidated calf serum. 4 hours after replating, cells were treated with either compounds or 1% DMSO for 20-24 hours. Luciferase activity was then assayed with Britelite (Perkin Elmer) following the manufacturer's protocol and measured with either the Perkin Elmer Viewlux or Molecular Devices Acquest (see, for example, Kliewer, S. A., et. al. Cell 1995, 83, 813-819). Rosiglitazone is used as a positive control in the PPARγ assay. Wy-14643 and GW7647 are used as positive controls in the PPARα assay. GW501516 is used as the positive control in the PPARδ assay.
(§2) Compounds of Examples 1-141 were assayed to measure their biological activity with respect to their EC50 values for modulating PPAR-alpha, PPAR-gamma, and PPAR-delta as set forth in Table 1.

PPAR-alpha = molecular target: T2, PPAR-alpha (UniProt Q07869); assay: PPAR-alpha transactivation assay (GAL4 chimera, luciferase reporter) in CV-1 cells
T2 sequence (Q07869 1-468): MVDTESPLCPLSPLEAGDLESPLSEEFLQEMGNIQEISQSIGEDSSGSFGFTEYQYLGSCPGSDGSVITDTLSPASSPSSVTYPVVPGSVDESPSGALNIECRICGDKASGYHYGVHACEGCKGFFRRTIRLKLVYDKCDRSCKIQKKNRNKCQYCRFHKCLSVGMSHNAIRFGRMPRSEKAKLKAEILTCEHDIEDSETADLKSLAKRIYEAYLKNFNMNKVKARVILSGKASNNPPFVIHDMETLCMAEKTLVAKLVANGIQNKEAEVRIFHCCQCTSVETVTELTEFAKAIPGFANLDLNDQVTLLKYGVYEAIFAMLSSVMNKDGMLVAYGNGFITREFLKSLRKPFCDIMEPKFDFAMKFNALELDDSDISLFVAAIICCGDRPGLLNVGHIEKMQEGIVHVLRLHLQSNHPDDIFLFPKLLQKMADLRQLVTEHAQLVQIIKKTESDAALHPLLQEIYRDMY
Text: as §1, §2

PPAR-delta = molecular target: T3, PPAR-delta (UniProt Q03181); assay: PPAR-delta transactivation assay (GAL4 chimera, luciferase reporter) in CV-1 cells
T3 sequence (Q03181 1-441): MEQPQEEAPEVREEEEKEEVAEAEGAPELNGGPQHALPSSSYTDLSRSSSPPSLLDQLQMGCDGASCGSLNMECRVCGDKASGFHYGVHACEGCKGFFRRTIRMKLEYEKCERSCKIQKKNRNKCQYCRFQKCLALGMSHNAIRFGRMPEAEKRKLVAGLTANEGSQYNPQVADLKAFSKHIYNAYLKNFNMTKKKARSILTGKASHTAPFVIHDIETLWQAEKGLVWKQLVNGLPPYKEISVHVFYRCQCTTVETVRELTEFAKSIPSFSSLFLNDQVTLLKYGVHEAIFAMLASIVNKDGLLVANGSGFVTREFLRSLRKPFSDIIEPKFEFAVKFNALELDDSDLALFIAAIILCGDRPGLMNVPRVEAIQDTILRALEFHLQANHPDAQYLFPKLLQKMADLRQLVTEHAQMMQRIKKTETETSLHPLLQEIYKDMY
Text: as §1, §2

SMILES	pEC50 (PPAR-gamma)	pEC50 (PPAR-alpha)	pEC50 (PPAR-delta)
O=C(O)CC1Cc2cccc(S(=O)(=O)N3CCN(c4ccc(C(F)(F)F)cc4)CC3)c2C1 (stereo not drawn) [Example 2, {4-[4-(4-trifluoromethyl-phenyl)-piperazine-1-sulfonyl]-indan-2-yl}-acetic acid]	4.00 to 5.30	< 4.00	> 5.30
O=C(O)CC1Cc2ccc(S(=O)(=O)N3CCN(c4ccc(Cl)c(Cl)c4)CC3)cc2C1 (stereo not drawn) [Example 3, {5-[4-(3,4-dichlorophenyl)-piperazine-1-sulfonyl]-indan-2-yl}-acetic acid]	4.00 to 5.30	4.00 to 5.30	4.00 to 5.30
O=C(O)CC1Cc2cccc(S(=O)(=O)N3CCN(c4ccc(Cl)c(Cl)c4)CC3)c2C1 (stereo not drawn) [Example 4, {4-[4-(3,4-dichlorophenyl)-piperazine-1-sulfonyl]-indan-2-yl}-acetic acid]	< 4.00	< 4.00	4.00 to 5.30
O=C(O)C1Cc2ccc(S(=O)(=O)N3CCN(c4ccc(C(F)(F)F)cc4)CC3)cc2C1 (stereo not drawn) [Example 5, 5-[4-(4-trifluoromethyl-phenyl)-piperazine-1-sulfonyl]-indan-2-carboxylic acid]	4.00 to 5.30	4.00 to 5.30	> 5.30
O=C(O)C1Cc2cccc(S(=O)(=O)N3CCN(c4ccc(C(F)(F)F)cc4)CC3)c2C1 (stereo not drawn) [Example 6, 4-[4-(4-trifluoromethyl-phenyl)-piperazine-1-sulfonyl]-indan-2-carboxylic acid]	> 5.30	< 4.00	> 5.30
O=C(O)C1Cc2ccc(S(=O)(=O)N3CCN(c4ccc(Cl)c(Cl)c4)CC3)cc2C1 (stereo not drawn) [Example 7, 5-[4-(3,4-dichlorophenyl)-piperazine-1-sulfonyl]-indan-2-carboxylic acid]	4.00 to 5.30	4.00 to 5.30	> 5.30
O=C(O)C1Cc2cccc(S(=O)(=O)N3CCN(c4ccc(Cl)c(Cl)c4)CC3)c2C1 (stereo not drawn) [Example 8, 4-[4-(3,4-dichlorophenyl)-piperazine-1-sulfonyl]-indan-2-carboxylic acid]	> 5.30	4.00 to 5.30	> 5.30
O=C(O)C1Cc2ccc(S(=O)(=O)N3CCN(c4ccc(C(F)(F)F)cn4)CC3)cc2C1 (stereo not drawn) [Example 9]	4.00 to 5.30	4.00 to 5.30	> 5.30
CC1(C(=O)O)Cc2ccc(S(=O)(=O)N3CCN(c4ccc(C(F)(F)F)cn4)CC3)cc2C1 (stereo not drawn) [Example 13, 2-methyl-5-[4-(5-trifluoromethyl-pyridin-2-yl)-piperazine-1-sulfonyl]-indan-2-carboxylic acid]	4.00 to 5.30	4.00 to 5.30	> 5.30

The remaining lines, values ahead:

pEC50 (PPAR-gamma)	pEC50 (PPAR-alpha)	pEC50 (PPAR-delta)	SMILES
4.00 to 5.30	< 4.00	4.00 to 5.30	CC1(C(=O)O)Cc2cccc(S(=O)(=O)N3CCN(c4ccc(C(F)(F)F)cn4)CC3)c2C1 (stereo not drawn) [Example 14, 2-methyl-4-[4-(5-trifluoromethyl-pyridin-2-yl)-piperazine-1-sulfonyl]-indan-2-carboxylic acid]
4.00 to 5.30	4.00 to 5.30	4.00 to 5.30	O=C(O)C1Cc2ccc(S(=O)(=O)N3CCN(c4cccc(C(F)(F)F)c4)CC3)cc2C1 (stereo not drawn) [Example 15, 5-[4-(3-trifluoromethyl-phenyl)-piperazine-1-sulfonyl]-indan-2-carboxylic acid]
4.00 to 5.30	4.00 to 5.30	> 5.30	O=C(O)C1Cc2cccc(S(=O)(=O)N3CCN(c4cccc(C(F)(F)F)c4)CC3)c2C1 (stereo not drawn) [Example 16, 4-[4-(3-trifluoromethyl-phenyl)-piperazine-1-sulfonyl]-indan-2-carboxylic acid]
4.00 to 5.30	4.00 to 5.30	4.00 to 5.30	O=C(O)C1Cc2ccc(S(=O)(=O)N3CC=C(c4ccc(C(F)(F)F)cc4)CC3)cc2C1 (stereo not drawn) [Example 17, 5-[4-(4-trifluoromethyl-phenyl)-3,6-dihydro-2H-pyridine-1-sulfonyl]-indan-2-carboxylic acid]
4.00 to 5.30	4.00 to 5.30	> 5.30	O=C(O)C1Cc2cccc(S(=O)(=O)N3CC=C(c4ccc(C(F)(F)F)cc4)CC3)c2C1 (stereo not drawn) [Example 18, 4-[4-(4-trifluoromethyl-phenyl)-3,6-dihydro-2H-pyridine-1-sulfonyl]-indan-2-carboxylic acid]
> 5.30	> 5.30	> 5.30	O=C(O)C1CCc2ccc(S(=O)(=O)N3CCN(c4ccc(C(F)(F)F)cc4)CC3)cc21 (stereo not drawn) [Example 19, 6-[4-(4-trifluoromethyl-phenyl)-piperazine-1-sulfonyl]-indan-1-carboxylic acid]
> 5.30	> 5.30	> 5.30	O=C(O)C1CCc2ccc(S(=O)(=O)N3CCN(c4ccc(C(F)(F)F)cn4)CC3)cc21 (stereo not drawn) [Example 20, 6-[4-(5-trifluoromethyl-pyridin-2-yl)-piperazine-1-sulfonyl]-indan-1-carboxylic acid]
4.00 to 5.30	4.00 to 5.30	4.00 to 5.30	O=C(O)C1CCc2ccc(S(=O)(=O)N3CCN(c4ccc5c(c4)OCO5)CC3)cc21 (stereo not drawn) [Example 21, 6-(4-Benzo[1,3]dioxol-5-yl-piperazine-1-sulfonyl)-indan-1-carboxylic acid]
4.00 to 5.30	> 5.30	> 5.30	O=C(O)C1CCc2ccc(S(=O)(=O)N3CC=C(c4ccc(C(F)(F)F)cc4)CC3)cc21 (stereo not drawn) [Example 22, 6-[4-(4-trifluoromethyl-phenyl)-3,6-dihydro-2H-pyridine-1-sulfonyl]-indan-1-carboxylic acid]
> 5.30	> 5.30	> 5.30	C[C@H]1CN(c2ccc(C(F)(F)F)cn2)CCN1S(=O)(=O)c1ccc2c(c1)C(C(=O)O)CC2 (stereo partly drawn) [Example 23, 6-[2-(S)-methyl-4-(5-trifluoromethyl-pyridin-2-yl)-piperazine-1-sulfonyl]-indan-1-carboxylic acid]
> 5.30	> 5.30	> 5.30	C[C@@H]1CN(c2ccc(C(F)(F)F)cn2)CCN1S(=O)(=O)c1ccc2c(c1)C(C(=O)O)CC2 (stereo partly drawn) [Example 24, 6-[2-(R)-methyl-4-(5-trifluoromethyl-pyridin-2-yl)-piperazine-1-sulfonyl]-indan-1-carboxylic acid]
> 5.30	> 5.30	> 5.30	C[C@@H]1CN(S(=O)(=O)c2ccc3c(c2)C(C(=O)O)CC3)CCN1c1ccc(C(F)(F)F)cn1 (stereo partly drawn) [Example 25, 6-[3-(R)-methyl-4-(5-trifluoromethyl-pyridin-2-yl)-piperazine-1-sulfonyl]-indan-1-carboxylic acid]
> 5.30	> 5.30	> 5.30	O=C(O)C1CCc2ccc(S(=O)(=O)N3CCN(c4ccc(C(F)(F)F)c(F)c4)CC3)cc21 (stereo not drawn) [Example 26, 6-[4-(3-fluoro-4-trifluoromethyl-phenyl)-piperazine-1-sulfonyl]-indan-1-carboxylic acid]
